Among the data in patent US12336981B2, “Compounds and compositions for the inhibition of NAMPT” (Valo Health, Inc., priority 2010, dated 2025) are IC50 values, retold here.

Read-outs that look alike come from different tables or passages of the source.

One assay deals with T1, NAMPT (Homo sapiens, UniProt P43490).
T1 construct: His tag; host or cells: E. coli
The experiment in a line: Biochemical inhibition assay: NAMPT enzymatic reaction, NMN quantified by mass spectrometry. The note with it: read-out: Biochem IC50. The method in brief: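 Inhibition of E. coli-expressed His-tagged human NAMPT, measured as NMN formation by mass spectrometry after a 30 min room-temperature reaction containing 1 μM NAM, 100 μM PRPP and 2.5 mM ATP.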

A further assay concerns A2780 cells. The experiment in a line: In-vitro cell proliferation assay (SRB), A2780 cells. The assay is classed as cell-based. To be noted: Homo sapiens, A2780, 72 h, A2780 cells, 72 hours, read-out: A2780 IC50. The method in brief: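 Proliferation is assessed by sulforhodamine B staining following a 72-hour incubation with compound dilutions containing 0.1% DMSO.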

T1 sequence (P43490 whole entry): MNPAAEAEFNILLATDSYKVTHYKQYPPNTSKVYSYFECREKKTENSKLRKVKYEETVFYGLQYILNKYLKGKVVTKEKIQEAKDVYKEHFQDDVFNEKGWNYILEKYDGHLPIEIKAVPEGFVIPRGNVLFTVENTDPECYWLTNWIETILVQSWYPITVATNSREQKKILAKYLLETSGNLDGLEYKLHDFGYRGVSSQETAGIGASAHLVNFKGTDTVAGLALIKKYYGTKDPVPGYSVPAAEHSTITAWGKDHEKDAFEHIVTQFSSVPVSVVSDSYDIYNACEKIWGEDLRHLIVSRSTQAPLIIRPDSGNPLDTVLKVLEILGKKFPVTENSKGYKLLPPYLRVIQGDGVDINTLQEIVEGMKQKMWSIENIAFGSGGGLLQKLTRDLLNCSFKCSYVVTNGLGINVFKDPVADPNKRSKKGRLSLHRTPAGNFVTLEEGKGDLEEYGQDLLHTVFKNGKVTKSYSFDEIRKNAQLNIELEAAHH

For orientation: IC50 means the concentration that inhibits the measured activity by half. For the compound `Cc1cccc(S(=O)(=O)c2ccc(CNC(=O)c3cc4cnccc4[nH]3)cc2)c1C` [N-({4-[(2,3-dimethylbenzene)sulfonyl]phenyl}methyl)-1H-pyrrolo[3,2-c]pyridine-2-carboxamide], the IC50 stood at 14 nM at NAMPT (NAMPT enzymatic assay) and 7 nM in the assay with A2780 cells (SRB).
Turning to `Cc1cccc(S(=O)(=O)c2ccc(CNC(=O)c3ccc4nccn4c3)cc2)c1C` [N-({4-[(2,3-dimethylbenzene)sulfonyl]phenyl}methyl)imidazo[1,2-a]pyridine-6-carboxamide], the IC50 on NAMPT (NAMPT enzymatic reaction) was found to be 43.3 nM; with A2780 cells (SRB), 9.85 nM.
Regarding `Cc1cccc(S(=O)(=O)c2ccc(CNC(=O)c3cc4ccncc4s3)cc2)c1C` [N-({4-[(2,3-dimethylbenzene)sulfonyl]phenyl}methyl)thieno[2,3-c]pyridine-2-carboxamide], the IC50 at NAMPT (NAMPT enzymatic assay) was found to be 11 nM; with A2780 cells (SRB) it was 4.4 nM.
With `Cc1cc(C)c(S(=O)(=O)c2ccc(CNC(=O)c3cnc4[nH]ncc4c3)cc2)cc1C` [N-({4-[(2,4,5-trimethylbenzene)sulfonyl]phenyl}methyl)-1H-pyrazolo[3,4-b]pyridine-5-carboxamide], the IC50 on NAMPT (NAMPT enzymatic reaction) came out at 31.3 nM; in the assay with A2780 cells (SRB), 19.3 nM.
The matching figures for `Cc1cc(C)c(S(=O)(=O)c2ccc(CNC(=O)c3ccc4nccn4c3)cc2)cc1C` [N-({4-[(2,4,5-trimethylbenzene)sulfonyl]phenyl}methyl)imidazo[1,2-a]pyridine-6-carboxamide]: 9.34 nM and 14.1 nM.
With `Cc1cc(C)c(S(=O)(=O)c2ccc(CNC(=O)c3cc4ccncc4s3)cc2)cc1C` [N-({4-[(2,4,5-trimethylbenzene)sulfonyl]phenyl}methyl)thieno[2,3-c]pyridine-2-carboxamide], the results for the IC50 on NAMPT (NAMPT enzymatic assay) and with A2780 cells (SRB) were 8 nM and 8.1 nM, respectively.
In the case of `Cc1cc(C)c(S(=O)(=O)c2ccc(CNC(=O)c3cnc4[nH]ncc4c3)cc2)c(C)c1` [N-({4-[(2,4,6-trimethylbenzene)sulfonyl]phenyl}methyl)-1H-pyrazolo[3,4-b]pyridine-5-carboxamide], the IC50 on NAMPT (NAMPT enzymatic reaction) was 136 nM; in the assay on A2780 cells (SRB), 100 to 1000 nM.
Turning to `Cc1cc(C)c(S(=O)(=O)c2ccc(CNC(=O)c3cc4cnccc4[nH]3)cc2)c(C)c1` [N-({4-[(2,4,6-trimethylbenzene)sulfonyl]phenyl}methyl)-1H-pyrrolo[3,2-c]pyridine-2-carboxamide], the IC50 at NAMPT (NAMPT enzymatic assay) is 76 nM; in the assay on A2780 cells (SRB), 46 nM.
In the case of `O=C(NCc1ccc(S(=O)(=O)c2ccc(F)cc2F)cc1)c1ccc2nccn2c1` [N-({4-[(2,4-difluorobenzene)sulfonyl]phenyl}methyl)imidazo[1,2-a]pyridine-6-carboxamide], the IC50 on NAMPT (NAMPT enzymatic reaction) stood at 28.3 nM; in the assay on A2780 cells (SRB), 28.1 nM.
On to `COc1ccc(S(=O)(=O)c2ccc(CNC(=O)c3cc4cnccc4[nH]3)cc2)c(OC)c1` [N-({4-[(2,4-dimethoxybenzene)sulfonyl]phenyl}methyl)-1H-pyrrolo[3,2-c]pyridine-2-carboxamide], for which the IC50 at NAMPT (NAMPT enzymatic assay) was 27 nM; in the assay with A2780 cells (SRB) it was 7 nM.
Take `COc1ccc(S(=O)(=O)c2ccc(CNC(=O)c3ccc4nccn4c3)cc2)c(OC)c1` [N-({4-[(2,4-dimethoxybenzene)sulfonyl]phenyl}methyl)imidazo[1,2-a]pyridine-6-carboxamide]: the figures for the IC50 at NAMPT (NAMPT enzymatic reaction) and with A2780 cells (SRB) were 58.2 nM and 15.1 nM, respectively.
The like results for `COc1ccc(S(=O)(=O)c2ccc(CNC(=O)c3cc4ccncc4s3)cc2)c(OC)c1` [N-({4-[(2,4-dimethoxybenzene)sulfonyl]phenyl}methyl)thieno[2,3-c]pyridine-2-carboxamide] were, in that order, 4.5 nM and 1.6 nM.
Take `COc1ccc(NS(=O)(=O)c2ccc(CNC(=O)c3cc4cnccc4[nH]3)cc2)c(OC)c1` [N-({4-[(2,4-dimethoxyphenyl)sulfamoyl]phenyl}methyl)-1H-pyrrolo[3,2-c]pyridine-2-carboxamide]: the figures for the IC50 on NAMPT (NAMPT enzymatic assay) and in the assay on A2780 cells (SRB) were 5.8 nM and 6.9 nM, respectively.
`Cc1ccc(S(=O)(=O)c2ccc(CNC(=O)c3cnc4[nH]ncc4c3)cc2)c(C)c1` [N-({4-[(2,4-dimethylbenzene)sulfonyl]phenyl}methyl)-1H-pyrazolo[3,4-b]pyridine-5-carboxamide]: the IC50 was found to be 61.2 nM on NAMPT (NAMPT enzymatic reaction) and 71.6 nM with A2780 cells (SRB).
As for `Cc1ccc(S(=O)(=O)c2ccc(CNC(=O)c3cc4cnccc4[nH]3)cc2)c(C)c1` [N-({4-[(2,4-dimethylbenzene)sulfonyl]phenyl}methyl)-1H-pyrrolo[3,2-c]pyridine-2-carboxamide], the IC50 came out at 21 nM at NAMPT (NAMPT enzymatic assay) and 12 nM with A2780 cells (SRB).
On to `Cc1ccc(S(=O)(=O)c2ccc(CNC(=O)c3ccc4nccn4c3)cc2)c(C)c1` [N-({4-[(2,4-dimethylbenzene)sulfonyl]phenyl}methyl)imidazo[1,2-a]pyridine-6-carboxamide], for which the IC50 on NAMPT (NAMPT enzymatic reaction) was 21.6 nM; in the assay with A2780 cells (SRB), 32.1 nM.
On to `Cc1ccc(S(=O)(=O)c2ccc(CNC(=O)c3cc4ccncc4s3)cc2)c(C)c1` [N-({4-[(2,4-dimethylbenzene)sulfonyl]phenyl}methyl)thieno[2,3-c]pyridine-2-carboxamide], for which the IC50 at NAMPT (NAMPT enzymatic assay) was 12 nM; with A2780 cells (SRB) it was 22.2 nM.
For `COc1ccc(OC)c(S(=O)(=O)c2ccc(CNC(=O)c3cnc4[nH]ncc4c3)cc2)c1` [N-({4-[(2,5-dimethoxybenzene)sulfonyl]phenyl}methyl)-1H-pyrazolo[3,4-b]pyridine-5-carboxamide], the IC50 is 39.8 nM at NAMPT (NAMPT enzymatic reaction) and 24.8 nM in the assay on A2780 cells (SRB).
In the case of `COc1ccc(OC)c(S(=O)(=O)c2ccc(CNC(=O)c3cc4cnccc4[nH]3)cc2)c1` [N-({4-[(2,5-dimethoxybenzene)sulfonyl]phenyl}methyl)-1H-pyrrolo[3,2-c]pyridine-2-carboxamide], the IC50 stood at 17 nM at NAMPT (NAMPT enzymatic assay) and 6 nM with A2780 cells (SRB).
For `COc1ccc(OC)c(S(=O)(=O)c2ccc(CNC(=O)c3ccc4nccn4c3)cc2)c1` [N-({4-[(2,5-dimethoxybenzene)sulfonyl]phenyl}methyl)imidazo[1,2-a]pyridine-6-carboxamide], the values for the half-maximal inhibitory concentration (IC50) on NAMPT (NAMPT enzymatic reaction) and in the assay with A2780 cells (SRB) were 20.2 nM and 12.8 nM, respectively.
For `COc1ccc(OC)c(S(=O)(=O)c2ccc(CNC(=O)c3cnc4nccn4c3)cc2)c1` [N-({4-[(2,5-dimethoxybenzene)sulfonyl]phenyl}methyl)imidazo[1,2-a]pyrimidine-6-carboxamide], the values for the IC50 at NAMPT (NAMPT enzymatic reaction) and with A2780 cells (SRB) were 6.9 nM and 45.7 nM, respectively.
Regarding `COc1ccc(OC)c(S(=O)(=O)c2ccc(CNC(=O)c3cc4ccncc4s3)cc2)c1` [N-({4-[(2,5-dimethoxybenzene)sulfonyl]phenyl}methyl)thieno[2,3-c]pyridine-2-carboxamide], the results for the IC50 on NAMPT (NAMPT enzymatic assay) and with A2780 cells (SRB) were 4 nM and 2.3 nM, respectively.
Consider `Cc1ccc(C)c(S(=O)(=O)c2ccc(CNC(=O)c3cnc4[nH]ncc4c3)cc2)c1` [N-({4-[(2,5-dimethylbenzene)sulfonyl]phenyl}methyl)-1H-pyrazolo[3,4-b]pyridine-5-carboxamide], for which the IC50 on NAMPT (NAMPT enzymatic reaction) amounted to 20.9 nM; with A2780 cells (SRB), 17.2 nM.
On to `Cc1ccc(C)c(S(=O)(=O)c2ccc(CNC(=O)c3cc4cnccc4[nH]3)cc2)c1` [N-({4-[(2,5-dimethylbenzene)sulfonyl]phenyl}methyl)-1H-pyrrolo[3,2-c]pyridine-2-carboxamide], for which the IC50 on NAMPT (NAMPT enzymatic reaction) worked out at 11 nM; with A2780 cells (SRB assay), 14 nM.
`Cc1ccc(C)c(S(=O)(=O)c2ccc(CNC(=O)c3ccc4nccn4c3)cc2)c1` [N-({4-[(2,5-dimethylbenzene)sulfonyl]phenyl}methyl)imidazo[1,2-a]pyridine-6-carboxamide]: the IC50 amounted to 29.3 nM on NAMPT (NAMPT enzymatic reaction) and 15.4 nM in the assay with A2780 cells (SRB).
As for `Cc1ccc(C)c(S(=O)(=O)c2ccc(CNC(=O)c3cc4ccncc4s3)cc2)c1` [N-({4-[(2,5-dimethylbenzene)sulfonyl]phenyl}methyl)thieno[2,3-c]pyridine-2-carboxamide], the IC50 on NAMPT (NAMPT enzymatic reaction) is 11 nM; in the assay on A2780 cells (SRB assay), 8.6 nM.
On to `Cc1ccc(Cl)c(S(=O)(=O)c2ccc(CNC(=O)c3cc4ccncc4s3)cc2)c1Cl` [N-({4-[(2,6-dichloro-3-methylbenzene)sulfonyl]phenyl}methyl)thieno[2,3-c]pyridine-2-carboxamide], for which the values for the IC50 at NAMPT (NAMPT enzymatic reaction) and in the assay with A2780 cells (SRB) were 4.4 nM and 8.2 nM, respectively.
For the compound `COc1cc(C)cc(OC)c1S(=O)(=O)c1ccc(CNC(=O)c2cc3cnccc3[nH]2)cc1` [N-({4-[(2,6-dimethoxy-4-methylbenzene)sulfonyl]phenyl}methyl)-1H-pyrrolo[3,2-c]pyridine-2-carboxamide], the IC50 at NAMPT (NAMPT enzymatic reaction) is 16 nM; in the assay on A2780 cells (SRB assay), 10 nM.
As to `COc1cc(C)cc(OC)c1S(=O)(=O)c1ccc(CNC(=O)c2cc3ccncc3o2)cc1` [N-({4-[(2,6-dimethoxy-4-methylbenzene)sulfonyl]phenyl}methyl)furo[2,3-c]pyridine-2-carboxamide], the IC50 at NAMPT (NAMPT enzymatic reaction) is 5 nM; with A2780 cells (SRB), 23 nM.
In the case of `COc1cc(C)cc(OC)c1S(=O)(=O)c1ccc(CNC(=O)c2cc3ccncc3s2)cc1` [N-({4-[(2,6-dimethoxy-4-methylbenzene)sulfonyl]phenyl}methyl)thieno[2,3-c]pyridine-2-carboxamide], the IC50 on NAMPT (NAMPT enzymatic reaction) was 7 nM; in the assay on A2780 cells (SRB assay), 3 nM.
For the compound `Cc1cccc(C)c1S(=O)(=O)c1ccc(CNC(=O)c2cnc3[nH]ncc3c2)cc1` [N-({4-[(2,6-dimethylbenzene)sulfonyl]phenyl}methyl)-1H-pyrazolo[3,4-b]pyridine-5-carboxamide], the IC50 on NAMPT (NAMPT enzymatic reaction) is 159 nM; in the assay with A2780 cells (SRB) it was 100 to 1000 nM.
The like results for `CC(=O)c1ccccc1S(=O)(=O)c1ccc(CNC(=O)c2cnc3[nH]ncc3c2)cc1` [N-({4-[(2-acetylbenzene)sulfonyl]phenyl}methyl)-1H-pyrazolo[3,4-b]pyridine-5-carboxamide] were, in that order, 3.6 nM and 11.4 nM.
